Experiments:
[1] = molecular target: T1, Human Neuropeptide Y2 Receptor (Homo sapiens, UniProt P49146); experiment: Radioligand binding competition assay (RLB); conditions: Table 3, 125I-PYY(1-36) competition; read-out: Ki
T1 construct: purchased CHEMICON HTS066M
T1 sequence (P49146 1-381): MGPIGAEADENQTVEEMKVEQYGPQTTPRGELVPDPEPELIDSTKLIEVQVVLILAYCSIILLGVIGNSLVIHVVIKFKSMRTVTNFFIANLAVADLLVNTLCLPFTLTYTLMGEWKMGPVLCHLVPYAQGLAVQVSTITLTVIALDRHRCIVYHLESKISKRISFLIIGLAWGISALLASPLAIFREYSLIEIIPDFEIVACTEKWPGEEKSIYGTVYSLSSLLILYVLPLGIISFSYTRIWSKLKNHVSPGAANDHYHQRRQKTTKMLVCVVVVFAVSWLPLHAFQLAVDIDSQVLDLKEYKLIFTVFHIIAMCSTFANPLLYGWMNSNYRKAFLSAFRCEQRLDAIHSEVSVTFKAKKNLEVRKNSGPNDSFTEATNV
Protocol: The filtration RLB assay was carried out in 96-well plates in a final volume of 100 μl per well. Freeze-dried test peptides were dissolved in 100% dimethyl sulfoxide (DMSO) to stock solutions of 1 mM and serial dilutions were performed in assay buffer (50 mM HEPES, 5 mM MgCl2, 1 mM CaCl2, pH 7.4) containing 0.2% ovalbumin. […] Next, 80 μL membranes (HTS066M, ChemiSCREEN™ Human Neuropeptide Y2 Receptor Membrane Preparation, CHEMICON) were added to each well to give a final protein concentration of 0.5 μg/well. The plates were sealed and incubated at room temperature for 2 hours in a plate shaker set at 400 rpm. The incubation was stopped by vacuum filtration onto 0.5% polyethylene amine (PE) presoaked GF/C filters using a 96-well FilterMate™ harvester (Perkin Elmer) followed by four washes with 300 μl/well ice-cold wash buffer (50 mM HEPES, 500 mM NaCl, pH7.4). Filter plates were then dried for 60 min at room temperature and the bottom of the plates was sealed with backing tape UniFilter-96. Finally, 50 μl/well scintillation counter cocktail (Microscint20, Packard) was added and the radioactivity was counted in the Packard TopCount NXT scintillation counter. IC50 values (the half maximal inhibitory concentration of the agonist) were calculated by nonlinear regression analysis of sigmoidal dose-response curves.

Solubility determination = conditions: for Sol6: pH 6; for Sol7: pH 7
Protocol: Peptides (as TFA salts) were weighed out in a filter unit (Mini-UniPrep Syringeless Filter 0.45 μm, Whatman), and 0.1 M sodium diphosphate buffer at pH 6.4 or 7.0 was added to achieve 10 mg/ml final concentration. The peptide was dissolved by shaking the filter unit horizontally at 600 rpm for 2 hours at room temperature. The sample was filtered, to remove any insoluble particles and diluted to 1 mg/ml in 50% acetonitrile. The control was prepared by weighing out the corresponding peptide and dissolving it in 50% acetonitrile to final concentration of 1 mg/ml. Both the control and sample were analysed with reversed phase chromatography. The area under the peak of the sample was compared to the control and the solubility was calculated based on that ratio.
The pH was measured and recorded for each sample.
System: UltiMate 3000 UPLC, ThermoFisher
Mobile phase A: 5% acetonitrile, 95% water, 0.03% trifluoracetic acid.
Mobile phase B: 95% acetonitrile, 5% water, 0.03% trifluoracetic acid.
Gradient: 0-100% mobile phase B (2 mins.)
Column temperature: 50° C.

SMILES | Ki [1] [nM] | Sol6 (Solubility determination) [mg/mL] | Sol7 (Solubility determination) [mg/mL]
CC(C)CC(=O)N[C@@H](C)C(=O)N1CCC[C@H]1C(=O)N[C@@H](CCC(=O)O)C(=O)N[C@@H](CCCCNC(=O)CCCCCNC(=O)CC[C@H](NC(=O)CCCCCCCCCCCCCCCCC(=O)O)C(=O)O)C(=O)N1CCC[C@H]1C(=O)N[C@@H](CCC(=O)O)C(=O)N[C@@H](CCC(=O)O)C(=O)N[C@@H](CCC(N)=O)C(=O)N[C@@H](C)C(=O)N[C@H](C(=O)N1CCC[C@H]1C(=O)N[C@@H](CCC(=O)O)C(=O)N[C@@H](CCC(=O)O)C(=O)N[C@@H](CC(C)C)C(=O)N[C@@H](CCC(N)=O)C(=O)N[C@@H](CCCNC(=N)N)C(=O)N[C@@H](Cc1ccc(O)cc1)C(=O)N[C@@H](Cc1ccc(O)cc1)C(=O)N[C@H](C(=O)N[C@@H](CO)C(=O)N[C@@H](CC(C)C)C(=O)N[C@@H](CCCNC(=N)N)C(=O)N[C@@H](Cc1c[nH]cn1)C(=O)N[C@@H](Cc1ccc(O)cc1)C(=O)N[C@@H](Cc1ccc(O)cc1)C(=O)N[C@@H](CC(N)=O)C(=O)N[C@@H](Cc1c[nH]c2ccccc12)C(=O)N[C@@H](CC(C)C)C(=O)N[C@H](C(=O)N[C@@H](CCCNC(=N)N)C(=O)N[C@@H](CCC(N)=O)C(=O)N[C@@H](CCCNC(=N)N)C(=O)N[C@@H](Cc1ccc(O)cc1)C(N)=O)[C@@H](C)O)C(C)C)[C@@H](C)O [Compound 9, N{alpha-4}-(3-methylbutanoyl)-N{epsilon-7}-(6-[(4S)-4-carboxy-4-(17-carboxyheptadecanamido)butanamido]hexanoyl)[4A,7K,9E,11Q,13T,18Q,22V,28Y,30W,31L]-hPYY(4-36)] | 3.32 | 9.7 | 9.9
CC(C)CC(=O)N[C@@H](C)C(=O)N1CCC[C@H]1C(=O)N[C@@H](CCC(=O)O)C(=O)N[C@@H](CCCCNC(=O)CCCCCNC(=O)CC[C@H](NC(=O)CCCCCCCCCCCCCCCCC(=O)O)C(=O)O)C(=O)N1CCC[C@H]1C(=O)N[C@@H](CCC(=O)O)C(=O)N[C@@H](C)C(=O)N[C@@H](CC(=O)O)C(=O)N[C@@H](C)C(=O)N[C@@H](CO)C(=O)N1CCC[C@H]1C(=O)N[C@@H](CCC(=O)O)C(=O)N[C@@H](CCC(=O)O)C(=O)N[C@H](C(=O)N[C@@H](CCC(N)=O)C(=O)N[C@@H](CCCNC(=N)N)C(=O)N[C@@H](Cc1ccc(O)cc1)C(=O)N[C@@H](Cc1ccc(O)cc1)C(=O)N[C@H](C(=O)N[C@@H](CO)C(=O)N[C@@H](CC(C)C)C(=O)N[C@@H](CCCNC(=N)N)C(=O)N[C@@H](Cc1c[nH]cn1)C(=O)N[C@@H](Cc1ccc(O)cc1)C(=O)N[C@@H](Cc1ccc(O)cc1)C(=O)N[C@@H](CC(N)=O)C(=O)N[C@@H](Cc1c[nH]c2ccccc12)C(=O)N[C@@H](CC(C)C)C(=O)N[C@H](C(=O)N[C@@H](CCCNC(=N)N)C(=O)N[C@@H](CCC(N)=O)C(=O)N[C@@H](CCCNC(=N)N)C(=O)N[C@@H](Cc1ccc(O)cc1)C(N)=O)[C@@H](C)O)C(C)C)[C@@H](C)O [Compound 13, N{alpha-4}-(3-methylbutanoyl)-N{epsilon-7}-(6-[(4S)-4-carboxy-4-(17-carboxyheptadecanamido)butanamido]hexanoyl)[4A,7K,9E,10A,17T,18Q,22V,28Y,30W,31L]-hPYY(4-36)] | 1.53 | 10.0 | 10.0
CC[C@H](C)[C@H](NC(=O)[C@H](CCC(=O)O)NC(=O)[C@H](CCC(=O)O)NC(=O)[C@@H]1CCCN1C(=O)[C@@H](NC(=O)[C@H](C)NC(=O)[C@H](CC(=O)O)NC(=O)[C@H](CCC(=O)O)NC(=O)[C@H](CCC(=O)O)NC(=O)[C@@H]1CCCN1C(=O)[C@H](CCCCNC(=O)CCCCCNC(=O)CC[C@H](NC(=O)CCCCCCCCCCCCCCCCC(=O)O)C(=O)O)NC(=O)[C@H](CCC(=O)O)NC(=O)[C@@H]1CCCN1C(=O)[C@H](C)NC(=O)CC(C)C)[C@@H](C)O)C(=O)N[C@@H](CCC(N)=O)C(=O)N[C@@H](CCCNC(=N)N)C(=O)N[C@@H](Cc1ccc(O)cc1)C(=O)N[C@@H](Cc1ccc(O)cc1)C(=O)N1CCC[C@H]1C(=O)N[C@@H](CO)C(=O)N[C@@H](CC(C)C)C(=O)N[C@@H](CCCNC(=N)N)C(=O)N[C@@H](Cc1c[nH]cn1)C(=O)N[C@@H](Cc1ccc(O)cc1)C(=O)N[C@@H](Cc1ccc(O)cc1)C(=O)N[C@@H](CC(N)=O)C(=O)N[C@@H](Cc1c[nH]c2ccccc12)C(=O)N[C@@H](CC(C)C)C(=O)N[C@H](C(=O)N[C@@H](CCCNC(=N)N)C(=O)N[C@@H](CCC(N)=O)C(=O)N[C@@H](CCCNC(=N)N)C(=O)N[C@@H](Cc1ccc(O)cc1)C(N)=O)[C@@H](C)O [Compound 17, N{alpha-4}-(3-methylbutanoyl)-N{epsilon-7}-(6-[(4S)-4-carboxy-4-(17-carboxyheptadecanamido)butanamido]hexanoyl)[4A,7K,9E,13T,17I,18Q,22P,28Y,30W,31L]-hPYY(4-36)] | 24.6 | 10.0 | 10.0
CC(C)CC(=O)N[C@@H](C)C(=O)N1CCC[C@H]1C(=O)N[C@@H](CCC(=O)O)C(=O)N[C@@H](CCCCNC(=O)CCCCCNC(=O)CC[C@H](NC(=O)CCCCCCCCCCCCCCCCC(=O)O)C(=O)O)C(=O)N1CCC[C@H]1C(=O)N[C@@H](CCC(=O)O)C(=O)N[C@@H](CCC(=O)O)C(=O)N[C@@H](CC(=O)O)C(=O)N[C@@H](C)C(=O)N[C@H](C(=O)N[C@@H](CCC(=O)O)C(=O)N[C@@H](CCC(=O)O)C(=O)N[C@@H](CCC(=O)O)C(=O)N[C@@H](CC(C)C)C(=O)N[C@@H](CCC(N)=O)C(=O)N[C@@H](CCCNC(=N)N)C(=O)N[C@@H](Cc1ccc(O)cc1)C(=O)N[C@@H](Cc1ccc(O)cc1)C(=O)N[C@H](C(=O)N[C@@H](CO)C(=O)N[C@@H](CC(C)C)C(=O)N[C@@H](CCCNC(=N)N)C(=O)N[C@@H](Cc1c[nH]cn1)C(=O)N[C@@H](Cc1ccc(O)cc1)C(=O)N[C@@H](Cc1ccc(O)cc1)C(=O)N[C@@H](CC(N)=O)C(=O)N[C@@H](Cc1c[nH]c2ccccc12)C(=O)N[C@@H](CC(C)C)C(=O)N[C@H](C(=O)N[C@@H](CCCNC(=N)N)C(=O)N[C@@H](CCC(N)=O)C(=O)N[C@@H](CCCNC(=N)N)C(=O)N[C@@H](Cc1ccc(O)cc1)C(N)=O)[C@@H](C)O)C(C)C)[C@@H](C)O [Compound 19, N{alpha-4}-(3-methylbutanoyl)-N{epsilon-7}-(6-[(4S)-4-carboxy-4-(17-carboxyheptadecanamido)butanamido]hexanoyl)[4A,7K,9E,13T,14E,18Q,22V,28Y,30W,31L]-hPYY(4-36)] | 9.63 | 10.0 | 9.2
CC(C)CC(=O)N[C@@H](C)C(=O)N1CCC[C@H]1C(=O)N[C@@H](C)C(=O)N[C@@H](CCCCNC(=O)CCCCCNC(=O)CC[C@H](NC(=O)CCCCCCCCCCCCCCCCC(=O)O)C(=O)O)C(=O)N1CCC[C@H]1C(=O)N[C@@H](CCC(=O)O)C(=O)N[C@@H](CCC(=O)O)C(=O)N[C@@H](CC(=O)O)C(=O)N[C@@H](C)C(=O)N[C@@H](CO)C(=O)N1CCC[C@H]1C(=O)N[C@@H](CCC(=O)O)C(=O)N[C@@H](CCC(=O)O)C(=O)N[C@@H](CC(C)C)C(=O)N[C@@H](CCC(N)=O)C(=O)N[C@@H](CCCNC(=N)N)C(=O)N[C@@H](Cc1ccc(O)cc1)C(=O)N[C@@H](CCC(N)=O)C(=O)N[C@H](C(=O)N[C@@H](CO)C(=O)N[C@@H](CC(C)C)C(=O)N[C@@H](CCCNC(=N)N)C(=O)N[C@@H](Cc1c[nH]cn1)C(=O)N[C@@H](Cc1ccc(O)cc1)C(=O)N[C@@H](Cc1ccc(O)cc1)C(=O)N[C@@H](CC(N)=O)C(=O)N[C@@H](Cc1c[nH]c2ccccc12)C(=O)N[C@@H](CC(C)C)C(=O)N[C@H](C(=O)N[C@@H](CCCNC(=N)N)C(=O)N[C@@H](CCC(N)=O)C(=O)N[C@@H](CCCNC(=N)N)C(=O)N[C@@H](Cc1ccc(O)cc1)C(N)=O)[C@@H](C)O)C(C)C [Compound 20, N{alpha-4}-(3-methylbutanoyl)-N{epsilon-7}-(6-[(4S)-4-carboxy-4-(17-carboxyheptadecanamido)butanamido]hexanoyl)[4A,6A,7K,9E,18Q,21Q,22V,28Y,30W,31L]-hPYY(4-36)] | 2.41 | >10.0 | 10.0
